Data on three compounds can be found in patent US8071141B2, “Compositions for preventing or ameliorating multiple risk factor syndromes” (priority 2000, dated 2011).

The test system of series [1] is KK-Ay mice. Kind of series: Test Example 7: efficacy of turmeric extract in type II diabetic model mice. The settings on record: pioglitazone 0.04% or turmeric extract (Preparation Example 5) 0.5% in food. The class given is in vivo. An excerpt:
(§1) As a positive control, the antidiabetic agent pioglitazone was used. […] As pioglitazone, Actos Tab.

Series [2] deals with KK-Ay mice. Kind of series: Test Example 4: ameliorating effect on diabetes mellitus in type II diabetic model mice. The class given is in vivo. The settings on record: pioglitazone 0.02% or licorice extract (Preparation Example 2) 0.2% in food. From the text:
As a positive control, the antidiabetic agent pioglitazone was used.
The mice had free access to food for 7 days. […] For the determination of blood glucose, the simple blood glucose test Glutest Ace (Sanwa Kagaku Kenkyusho Co., Ltd.) was used.

Series [3] relates to KK-Ay mice. The series can be described thus: Test Example 9: efficacy of clove extract in type II diabetic model mice. The settings on record: pioglitazone 0.02% or clove extract (Preparation Example 7) 0.5% in food. It is filed as in vivo.
Description: as §1

Series [4] has as its system KK-Ay mice. Kind of series: Test Example 3: preventing effect on diabetes mellitus in type II diabetic model mice-2. The class given is in vivo. As to conditions: pioglitazone 0.04% or licorice extract (Preparation Example 2) 0.2% in food. From the text: Regarding troglitazone, Noscal Tab.
As a positive control, the antidiabetic agent pioglitazone was used. As pioglitazone, Actos Tab. […] For the determination of blood glucose, the simple blood glucose test Glutest Ace (Sanwa Kagaku Kenkyusho Co., Ltd.) was used.

Series [5] concerns spontaneously hypertensive rats (SHR). The series can be described thus: Test Example 5: efficacy in spontaneously hypertensive rats. The class given is in vivo. As to conditions: licorice extract (Preparation Example 3) 300 mg/kg/day or enalapril maleate 20 mg/kg/day orally. As for the experimental part:
As a positive control, enalapril maleate, an antihypertensive agent, was used.
During the period, the mice had free access to food (CRF-1, Oriental Yeast Co.) and water.
On the day immediately preceding the start of treatment and on day 7, day 14, and day 21 of treatment, the blood pressure was measured at the tail artery using a non-invasive automatic hemomanometer (BP-97A, Softron Co., Ltd.). The measurement of blood pressure was performed before each administration of the sample.

Series [6] deals with KK-Ay mice. As to conditions: for Blood glucose: troglitazone 0.2% or licorice extract (Preparation Example 1) 0.15% in food. As to the method:
As a positive control, the antidiabetic agent troglitazone was used.
Regarding troglitazone, Noscal Tab. 200 (200 mg of troglitazone in each tablet; Sankyo Co., Ltd.) was pulverized in an agate mortar and added to the normal food at a final concentration of 0.2%.
During the feeding period, small samples of blood were taken weekly from the mouse tail vein and the blood glucose was determined with the simple blood glucose test Novo Assist Plus (Novo Nordisk Pharma Ltd.).
At the end of the feeding period, the mice were fasted overnight and the abdomen was opened under ether anesthesia.
The blood was withdrawn from the abdominal aorta and the liver was excised and weighed. In addition, Sogo Ikagaku Kenkyusho Co., Ltd. was entrusted with analyses for serum total cholesterol (T-CHO), triglyceride (TG), free fatty acid (NEFA), GOT, GPT, LAP, cholinesterase (ChoE), total protein (TP-S), albumin (ALB-S), and A/G ratio.

The mark [7] stands for this setting: end of 4-week feeding, overnight fast, troglitazone 0.2% or licorice extract 0.15% in food.

Structures are written as SMILES. Counter-ions that a name gives are not always drawn. Like-named read-outs stand apart in the source and are kept apart here.

For the compound `CCc1ccc(CCOc2ccc(CC3SC(=O)NC3=O)cc2)nc1` (stereo not shown) [Pioglitazone, pioglitazone], the Blood glucose worked out at 163 ± 23 mg/dL in the series with KK-Ay mice [1] (1 week); 182 ± 9 mg/dL with KK-Ay mice [1] (2 week); 166 ± 18 mg/dL in the series on KK-Ay mice [1] (3 week); 153 ± 21 mg/dL with KK-Ay mice [1] (4 week); 151 ± 9 mg/dL in the series with KK-Ay mice [1] (Start); 168 ± 49 mg/dL in the series on KK-Ay mice [2] (Day 4). Besides, the Blood glucose in the series on KK-Ay mice [2] (Day 7) is 143 ± 16 mg/dL; in the series with KK-Ay mice [2] (Start, hyperglycemic 15-week-old mice), 378 ± 36 mg/dL; in the series with KK-Ay mice [3] (1 week) it was 208 ± 21 mg/dL; in the series with KK-Ay mice [3] (2 week), 192 ± 17 mg/dL; in the series with KK-Ay mice [3] (3 week), 164 ± 16 mg/dL; in the series on KK-Ay mice [3] (Start) it was 156 ± 16 mg/dL. Also, the Blood glucose was 163 ± 23 mg/dL with KK-Ay mice [4] (1 week); 182 ± 9 mg/dL in the series on KK-Ay mice [4] (2 week); 167 ± 18 mg/dL in the series on KK-Ay mice [4] (3 week); 153 ± 21 mg/dL in the series on KK-Ay mice [4] (4 week); 151 ± 9 mg/dL with KK-Ay mice [4] (Start).

On to `CCOC(=O)[C@H](CCc1ccccc1)N[C@@H](C)C(=O)N1CCC[C@H]1C(=O)O` [Enalapril maleate, enalapril maleate], for which the Blood pressure is given as 111 ± 2.5 mmHg in series [5] (Before start, tail artery); 118 ± 3.2 mmHg in series [5] (Day 7, tail artery); 119 ± 3.4 mmHg in series [5] (Day 14, tail artery); 134 ± 3.1 mmHg in series [5] (Day 21, tail artery).

For the compound `Cc1c(C)c2c(c(C)c1O)CCC(C)(COc1ccc(CC3SC(=O)NC3=O)cc1)O2` (stereo not shown) [Troglitazone, troglitazone], in the series on KK-Ay mice [6] (1 week), the Blood glucose turned out to be 217 ± 74 mg/dL. The compound also displayed a Blood glucose in the series on KK-Ay mice [6] (2 week) of 173 ± 40 mg/dL. The compound further gave a Blood glucose with KK-Ay mice [6] (3 week) of 304 ± 77 mg/dL. In the series on KK-Ay mice [6] (4 week), the Blood glucose was found to be 246 ± 51 mg/dL. The same compound registered a Blood glucose with KK-Ay mice [6] (Start) of 145 ± 11 mg/dL. Also, in the series on KK-Ay mice [6] (setting [7]), the “NEFA (serum free fatty acid)” value stood at 1750 ± 302 μEq/L, the “T-CHO (serum total cholesterol)” value was found to be 163 ± 7 mg/dL and the “TG (serum triglyceride)” value came out at 39 ± 14 mg/dL. Besides, in the series on KK-Ay mice [6] (mouse, in vivo), the A/G ratio was found to be 0.98 ± 0.05, the “ALB-S (albumin)” value stood at 2.50 ± 0.12 g/dL, the GOT worked out at 121 ± 26 IU/L and the GPT worked out at 70.5 ± 26.2 IU/L. Also, in the series on KK-Ay mice [6] (mouse, in vivo), the LAP is 60.8 ± 6.1 IU/L, the “TP-S (total protein)” value turned out to be 5.13 ± 0.17 g/dL and the “elevation in GOT compared with the non-treatment group” value stood at 13%. For the same compound, in the series with KK-Ay mice [6] (serum, end of 4-week feeding, troglitazone 0.2% or licorice extract 0.15% in food), the “ChoE (cholinesterase)” value turned out to be 153 ± 9 IU/L.
